Consider eight compounds from ChEMBL document CHEMBL1914338, “Tricyclic series of heat shock protein 90 (Hsp90) inhibitors part I: discovery of tricyclic imidazo[4,5-c]pyridines as potent inhibitors of the Hsp90 molecular chaperone” (J Med Chem, 2011).

The IC50 is the concentration that inhibits the measured activity by half. Higher therefore signals a need for much substance.

For assay [1], the target named is T1, Heat shock protein HSP 90-beta (Homo sapiens, UniProt P08238).
Description: Inhibition of human Hsp90beta after overnight incubation by fluorescence polarization assay
For assay [2], the target named is T1, Heat shock protein HSP 90-beta. The source holds these as a separate data set.
Description: Inhibition of HSP90beta in human SKBR3 cells assessed as down regulation of HER2 expression levels after 24 hrs by FACS analysis
Assay [3] has the same target. This is another data set of the same source.
Description: Binding affinity to human Hsp90beta assessed as association constant after overnight incubation by fluorescence polarization assay
For assay [4], the system named is P388. In words: Antitumor activity in mouse P388 cells xenografted in B6D2F1 mouse assessed as increase in mouse life span at 80 mg/kg/day, ip for 4 days relative to control. As to conditions: route intraperitoneal. In kind it is functional.
In assay [5] the test system is P388. In words: Antitumor activity in mouse P388 cells xenografted in B6D2F1 mouse assessed as median day of death at 80 mg/kg/day, ip for 4 days (reference value: 10 days). In kind it is functional. The following applies: route intraperitoneal.

T1 sequence (P08238 whole entry): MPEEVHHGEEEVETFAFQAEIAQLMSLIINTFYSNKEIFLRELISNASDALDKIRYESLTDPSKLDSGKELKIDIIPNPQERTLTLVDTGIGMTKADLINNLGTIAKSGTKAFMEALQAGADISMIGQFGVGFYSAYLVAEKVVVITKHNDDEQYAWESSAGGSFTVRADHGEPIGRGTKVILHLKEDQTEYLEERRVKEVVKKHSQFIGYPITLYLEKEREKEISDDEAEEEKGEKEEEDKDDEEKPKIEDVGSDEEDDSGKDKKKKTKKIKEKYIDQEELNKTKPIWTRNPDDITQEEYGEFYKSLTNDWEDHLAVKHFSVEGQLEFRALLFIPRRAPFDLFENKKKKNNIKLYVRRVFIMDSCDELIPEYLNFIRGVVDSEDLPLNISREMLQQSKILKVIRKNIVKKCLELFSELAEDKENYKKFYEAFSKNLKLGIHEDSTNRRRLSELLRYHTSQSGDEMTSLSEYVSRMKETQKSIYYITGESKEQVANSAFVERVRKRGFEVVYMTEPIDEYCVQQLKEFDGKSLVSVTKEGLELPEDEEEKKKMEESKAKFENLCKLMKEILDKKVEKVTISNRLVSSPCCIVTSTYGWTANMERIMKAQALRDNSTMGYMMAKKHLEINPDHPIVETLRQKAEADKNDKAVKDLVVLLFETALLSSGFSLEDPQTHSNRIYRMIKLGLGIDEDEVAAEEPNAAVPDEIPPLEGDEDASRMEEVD

In the case of `Cc1onc(-c2ccc(O)cc2O)c1-c1ccccc1`, in assay [1], the IC50 is 7.6 µM.
In assay [2], `O=C1c2ccccc2C2=C(c3nc4ccncc4[nH]3)CCCN12` displayed a half-maximal inhibitory concentration (IC50) greater than 50 µM.
As to `O=C1c2ccccc2-c2c1cccc2-c1nc2cnccc2[nH]1`, the IC50 in assay [2] was greater than 50 µM.
`NC(=O)CCC(=O)NC1c2ccccc2-c2c(-c3nc4cnccc4[nH]3)cccc21` (racemic): the IC50 in assay [2] was found to be 50 µM. This counts as double-digit micromolar.
In assay [2], `O=C(NC1c2ccccc2-c2c(-c3nc4ccncc4[nH]3)cccc21)c1ccncc1` (racemic) yielded an IC50 of 1.3 µM.
`O=C(NC1c2ccccc2-c2c(-c3nc4ccccc4[nH]3)cccc21)c1cccc2ncccc12` (racemic) came in with an IC50 in assay [2] of 1.3 µM.
In assay [2], `Nc1cc(C(=O)NC2c3ccccc3-c3c(-c4nc5ccncc5[nH]4)cccc32)ccn1` (racemic) showed an IC50 of 0.9 µM.
In assay [3], `C=CCNC1=C2C[C@@H](C)C[C@H](OC)[C@H](O)[C@@H](C)/C=C(\C)[C@H](OC(N)=O)[C@@H](OC)/C=C\C=C(/C)C(=O)NC(=CC1=O)C2=O` [TANESPIMYCIN] returned a Ka of 1.2 ×10⁴ /M/s. The Activity with P388 [4] amounted to 30%. Besides, the Time in the assay with P388 [5] was 13 days.
